SMILES strings stand for the structures. Counter-ions that a name gives are not always drawn.

Chain of Recombinant Human (rh) DPP1 (P53634 231-394 limits assumed): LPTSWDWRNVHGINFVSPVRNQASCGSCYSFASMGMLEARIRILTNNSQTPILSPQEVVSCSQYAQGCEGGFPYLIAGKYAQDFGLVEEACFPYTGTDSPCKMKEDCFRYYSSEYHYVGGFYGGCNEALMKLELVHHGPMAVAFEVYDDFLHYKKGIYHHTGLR
Chain of Recombinant Human (rh) DPP1 (P53634 25-134 limits assumed): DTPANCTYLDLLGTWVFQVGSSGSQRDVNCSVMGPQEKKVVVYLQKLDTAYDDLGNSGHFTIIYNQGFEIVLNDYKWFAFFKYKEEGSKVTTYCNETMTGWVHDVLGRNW
Chain of Recombinant Human (rh) DPP1 (P53634 395-463 limits assumed): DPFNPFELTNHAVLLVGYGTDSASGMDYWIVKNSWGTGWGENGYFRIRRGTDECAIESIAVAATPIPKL

This assay addresses Recombinant Human (rh) DPP1 (Homo sapiens, UniProt P53634). Kind of assay: Fluorescence Assay for Recombinant Human (rh) DPP1. It counts as biochemical. To be noted: rhDPP1, substrate H-Gly-Arg-AMC, pH5.0, 22° C., pre-incubated 30-60 min; read-out: DPP1 activity, pIC50 (converted). Here is the method: Fluorescence Assay for Recombinant Human (rh) DPP1
The activity of DPP1 was determined by measuring the enzymatic release of aminomethyl coumarin (AMC) from the peptide substrate (H-Gly-Arg-AMC), which leads to an increase in fluorescence intensity at λex=350 nm and λem=450 nm. The assay was carried out in black 384 well plates in a final volume of 50 μl at 22° C. The assay conditions contained the following: 25 mM piperazine buffer pH5.0; 50 mM NaCl, 5 mM DTT; 0.01% (v/v) Triton X-100; 100 μM H-Gly-Arg-AMC and rhDPP1 ([…]). […] A standard DPP1 inhibitor (vinyl sulfone, see below, or Example 24 from WO2009/074829) was used as a positive control in the assay. Routinely, inhibitors were pre-incubated with rhDPP1 for 30-60 min prior to the addition of the peptide substrate to start the reaction for a further 60 min at 22° C. After that the plates were immediately read in a fluorescence plate reader using the above emission and excitation wavelengths [modified from Kam, C M, Gotz, M G, Koot, G, McGuire, M J, Thiele, D L, Hudig, D & Powers, J C (2004). Arch Biochem Biophys, 427, 123-134 & McGuire, M J, Lipsky, P E & Thiele, D L (1992). Arch Biochem Biophys, 295, 280-288].
For `CCS(=O)(=O)c1ccc(-c2ccc(C[C@@H](C#N)NC(=O)C3(N)CCOCC3)cc2)cc1` [Example 2, (S)-4-Amino-N-(1-cyano-2-(4′-(ethylsulfonyl)biphenyl-4-yl)ethyl)tetrahydro-2H-pyran-4-carboxamide], the IC50 is 0.794 nM.
Next, `N#C[C@H](Cc1ccc(-c2ccc3c(c2)CNC3=O)cc1)NC(=O)C1(N)CCOCC1` [Example 15, (S)-4-Amino-N-(1-cyano-2-(4-(1-oxoisoindolin-5-yl)phenyl)ethyl)tetrahydro-2H-pyran-4-carboxamide]: 0.126 nM; `CS(=O)(=O)c1cccc(-c2ccc(C[C@@H](C#N)NC(=O)C3(N)CCOCC3)cc2)c1` [Example 23, (S)-4-Amino-N-(1-cyano-2-(3′-(methylsulfonyl)biphenyl-4-yl)ethyl)tetrahydro-2H-pyran-4-carboxamide trifluoroacetic acid salt]: 0.631 nM; `N#Cc1cc(-c2ccc(C[C@@H](C#N)NC(=O)C3(N)CCOCC3)cc2)ccc1F` [Example 22, (S)-4-Amino-N-(1-cyano-2-(3′-cyano-4′-fluorobiphenyl-4-yl)ethyl)tetrahydro-2H-pyran-4-carboxamide]: below 0.398 nM.
With `N#C[C@H](Cc1ccc(-c2ccc3oc(=O)[nH]c3c2)cc1)NC(=O)C1(N)CCOCC1` [Example 33, (S)-4-Amino-N-(1-cyano-2-(4-(2-oxo-2,3-dihydrobenzo[d]oxazol-5-yl)phenyl)ethyl)tetrahydro-2H-pyran-4-carboxamide trifluoroacetatic acid salt], the IC50 is 0.398 nM.
On to `N#C[C@H](Cc1ccc(-c2ccc(F)c(F)c2)cc1)NC(=O)C1(N)CCOCC1` [Example 13, (S)-4-Amino-N-(1-cyano-2-(3′,4′-difluorobiphenyl-4-yl)ethyl)tetrahydro-2H-pyran-4-carboxamide trifluoroacetic acid salt], for which the IC50 is 0.316 nM.
Next, `COCCn1c(=O)oc2ccc(-c3ccc(C[C@@H](C#N)NC(=O)C4(N)CCOCC4)cc3)cc21` [Example 24, (S)-4-Amino-N-(1-cyano-2-(4-(3-(2-methoxyethyl)-2-oxo-2,3-dihydrobenzo[d]oxazol-5-yl)phenyl)ethyl)tetrahydro-2H-pyran-4-carboxamide trifluoroacetic acid salt]: 0.2 nM.
Consider `COCCCn1c(=O)oc2ccc(-c3ccc(C[C@@H](C#N)NC(=O)C4(N)CCOCC4)cc3)cc21` [Example 11, (S)-4-Amino-N-(1-cyano-2-(4-(3-(3-methoxypropyl)-2-oxo-2,3-dihydrobenzo[d]oxazol-5-yl)phenyl)ethyl)tetrahydro-2H-pyran-4-carboxamide trifluoroacetic acid salt], for which the IC50 is below 0.316 nM.
Next, `CN1Cc2cc(-c3ccc(C[C@@H](C#N)NC(=O)C4(N)CCOCC4)cc3)cnc2C1=O` [Example 32, (S)-4-Amino-N-(1-cyano-2-(4-(6-methyl-7-oxo-6,7-dihydro-5H-pyrrolo[3,4-b]pyridin-3-yl)phenyl)ethyl)tetrahydro-2H-pyran-4-carboxamide]: 5.01 nM.
As to `CN1C(=O)CSc2cc(-c3ccc(C[C@@H](C#N)NC(=O)C4(N)CCOCC4)cc3)ccc21` [Example 28, (S)-4-Amino-N-(1-cyano-2-(4-(4-methyl-3-oxo-3,4-dihydro-2H-benzo[b][1,4]thiazin-7-yl)phenyl)ethyl)tetrahydro-2H-pyran-4-carboxamide], the IC50 is 0.398 nM.
Next, `Cc1cc(-c2ccc(C[C@@H](C#N)NC(=O)C3(N)CCOCC3)cc2)ccc1C#N` [Example 19, (S)-4-Amino-N-(1-cyano-2-(4′-cyano-3′-methylbiphenyl-4-yl)ethyl)tetrahydro-2H-pyran-4-carboxamide trifluoroacetic acid salt]: below 0.316 nM; `CC(C)S(=O)(=O)c1ccc(-c2ccc(C[C@@H](C#N)NC(=O)C3(N)CCOCC3)cc2)cc1` [Example 5, (S)-4-Amino-N-(1-cyano-2-(4′-(isopropylsulfonyl)biphenyl-4-yl)ethyl)tetrahydro-2H-pyran-4-carboxamide]: 1 nM; `N#C[C@H](Cc1ccc(-c2ccc(F)cc2)cc1)NC(=O)C1(N)CCOCC1` [Example 4, (S)-4-Amino-N-(1-cyano-2-(4′-fluorobiphenyl-4-yl)ethyl)tetrahydro-2H-pyran-4-carboxamide]: 0.398 nM.
For `CS(=O)(=O)Oc1ccc(-c2ccc(C[C@@H](C#N)NC(=O)C3(N)CCOCC3)cc2)cc1` [Example 6, (S)-4′-(2-(4-Aminotetrahydro-2H-pyran-4-carboxamido)-2-cyanoethyl)biphenyl-4-yl methanesulfonate trifluoroacetic acid salt, methanesulfonate trifluoroacetic acid …] the value was 0.398 nM; for `CN1C(=O)COc2ccc(-c3ccc(C[C@@H](C#N)NC(=O)C4(N)CCOCC4)cc3)cc21` [Example 10, (S)-4-Amino-N-(1-cyano-2-(4-(4-methyl-3-oxo-3,4-dihydro-2H-benzo[b][1,4]oxazin-6-yl)phenyl)ethyl)tetrahydro-2H-pyran-4-carboxamide trifluoroacetic acid salt], below 0.316 nM.
Next, `CS(=O)(=O)Oc1cccc(-c2ccc(C[C@@H](C#N)NC(=O)C3(N)CCOCC3)cc2)c1` [Example 12, (S)-4′-(2-(4-Aminotetrahydro-2H-pyran-4-carboxamido)-2-cyanoethyl)biphenyl-3-yl methanesulfonate]: 0.501 nM; `CN1Cc2ccc(-c3ccc(C[C@@H](C#N)NC(=O)C4(N)CCOCC4)cc3)cc2C1=O` [Example 30, (S)-4-Amino-N-(1-cyano-2-(4-(2-methyl-3-oxoisoindolin-5-yl)phenyl)ethyl)tetrahydro-2H-pyran-4-carboxamide trifluoroacetic acid salt]: 5.01 nM.
On to `Cn1c(=O)oc2ccc(-c3ccc(C[C@@H](C#N)NC(=O)C4(N)CCOCC4)cc3)cc21` [Example 17, (S)-4-amino-N-(1-cyano-2-(4-(3-methyl-2-oxo-2,3-dihydrobenzo[d]oxazol-5-yl)phenyl)ethyl)tetrahydro-2H-pyran-4-carboxamide], for which the IC50 was 0.316 nM.
Next, `N#C[C@H](Cc1ccc(-c2ccc(S(=O)(=O)N3CCC3)cc2)cc1)NC(=O)C1(N)CCOCC1` [Example 7, (S)-4-Amino-N-(2-(4′-(azetidin-1-ylsulfonyl)biphenyl-4-yl)-1-cyanoethyl)tetrahydro-2H-pyran-4-carboxamide trifluoroacetic acid salt]: 0.631 nM; `CN1CCN(S(=O)(=O)c2ccc(-c3ccc(C[C@@H](C#N)NC(=O)C4(N)CCOCC4)cc3)cc2)CC1` [Example 29, (S)-4-Amino-N-(1-cyano-2-(4′-(4-methylpiperazin-1-ylsulfonyl)biphenyl-4-yl)ethyl)tetrahydro-2H-pyran-4-carboxamide]: 0.631 nM; `CN1C(=O)Cc2ccc(-c3ccc(C[C@@H](C#N)NC(=O)C4(N)CCOCC4)cc3)cc21` [Example 21, (S)-4-Amino-N-(1-cyano-2-(4-(1-methyl-2-oxoindolin-6-yl)phenyl)ethyl)tetrahydro-2H-pyran-4-carboxamide]: 0.251 nM.
Next, `N#C[C@H](Cc1ccc(-c2ccc3c(c2)CS(=O)(=O)C3)cc1)NC(=O)C1(N)CCOCC1` [Example 34, 4-Amino-N-{(1S)-1-cyano-2-[4-(2,2-dioxido-1,3-dihydro-2-benzothiophen-5-yl)phenyl]ethyl}tetrahydro-2H-pyran-4-carboxamide]: 1.26 nM.

(Values after patent publication US8193239B2, “Substituted 1-cyanoethylheterocyclylcarboxamide compounds” (AstraZeneca AB, priority 2009, dated 2012).)
